Some test systems named below: HOP-62 NSCLC; MOLT-4 leukemia; OVCAR-8 ovarian; TK-10 renal; SF-268 CNS; T-47D breast; ACHN renal; MDA-MB-435; NCI-H226 lung; SK-MEL-2 melanoma; BT-549 breast; CAKI-1 renal; IGROV1 ovarian; U251 CNS; OVCAR-4 ovarian; LOX IMVI melanoma; SN12C renal; KM12 colon; K-562 leukemia; OVCAR-5 ovarian.
Holding throughout (assay): growth of human tumour cells (NCI), 48 h

SMILES strings stand for the structures.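 Five concentrations, 48 hours, 96-well plates. At the TGI there is no net growth.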 Where only a bound is given, the exact number is not on record here.

On to `CCCC(=O)Nc1cc(/C=C/C(=O)N2CC(CCl)c3c2cc(O)c2[nH]cc(C)c32)n(C)c1` (stereo not given), for which the TGI in the assay on HOP-62 NSCLC is under 0.025 nM; with MOLT-4 leukemia, 12.1 nM; in the assay with OVCAR-8 ovarian, 0.532 nM; in the assay with TK-10 renal, under 0.025 nM; with SF-268 CNS, under 0.025 nM; in the assay with T-47D breast, 8.84 nM. The TGI in the assay with ACHN renal was under 0.025 nM; in the assay on MDA-MB-435, under 0.025 nM; with NCI-H226 lung, 0.04 nM; in the assay on SK-MEL-2 melanoma, under 0.025 nM; in the assay on BT-549 breast, 0.504 nM; in the assay on CAKI-1 renal, under 0.025 nM. In addition, the TGI in the assay with IGROV1 ovarian is over 250 nM; with U251 CNS, 44.9 nM; in the assay on OVCAR-4 ovarian, 38 nM; with LOX IMVI melanoma, 16.3 nM; in the assay with SN12C renal it was 0.528 nM; in the assay on KM12 colon, over 250 nM. Further, the results for the TGI in the assay on K-562 leukemia and in the assay on OVCAR-5 ovarian were over 250 nM and 28.6 nM, respectively.

Consider `COc1cc(C(O)(CC#N)c2cc3c(cc2Br)OCO3)cc(OC)c1OC` (stereo not given), for which the TGI was 35900 nM in the assay with HOP-62 NSCLC; over 100000 nM in the assay on MOLT-4 leukemia; over 100000 nM in the assay with OVCAR-8 ovarian; over 100000 nM in the assay on TK-10 renal; over 100000 nM with SF-268 CNS; over 100000 nM in the assay on T-47D breast. Also, the TGI is over 100000 nM in the assay on ACHN renal; 13700 nM with MDA-MB-435; 83300 nM in the assay on NCI-H226 lung; over 100000 nM in the assay on SK-MEL-2 melanoma; over 100000 nM with BT-549 breast; 75800 nM with CAKI-1 renal. Also, the TGI in the assay on IGROV1 ovarian is over 100000 nM; in the assay with U251 CNS, over 100000 nM; in the assay on OVCAR-4 ovarian it was over 100000 nM; in the assay on LOX IMVI melanoma, over 100000 nM; in the assay with SN12C renal, over 100000 nM; in the assay on KM12 colon, 98700 nM. Moreover, the TGI in the assay on K-562 leukemia and in the assay with OVCAR-5 ovarian was over 100000 nM throughout.

The record behind these values is PubChem BioAssay (NCI).
